What was measured:
[1] = test system: OLE1 promoter-lacZ fusion; test: β-galactosidase assay of OLE1 promoter-lacZ fusion reporter (p62::934 and pAM4); format: cell-based, S. cerevisiae
Procedure: (§1) The construction of several of the OLE1 promoter-lacZ fusion deletion series has been described previously (Choi, et al., J. Biol. Chem. 271:3581-3589 (1996)). Construction of pAM6, pAM7, pAM10 and pAM16 vectors containing the OLE1 low oxygen response element (LORE) sequences −347 to −328 relative to the ATG translational start codon with the A of the codon designated as +1) was performed by inserting the synthetic paired oligonucleotides (10-5′ and 10-3′) into the XhoI restriction site of pTBA30, the CYC1 basal promoter-lacZ fusion vector. pAM16 contains one LORE copy in the −347 to −328 forward or (+) orientation 5′ to the basal CYC1 promoter-lacZ fusion. pAM7 has one LORE copy in the −328 to −347 reverse or (+) orientation. pAM6 contains a tandem repeat of the LORE in the (+) orientation. pAM10 was generated by inserting the synthetic paired oligonucleotides (yd-19 and yd-20) into the XhoI restriction site of pTBA30. The LORE in this plasmid has three mutations. Plasmid pAM4 is the p62::934 derivative with three nucleotide substitutions in the LORE region (-C342T, -T341A and -A339G) prepared utilizing three step PCR with oligonucleotides containing site-directed mutations. Two PCR reactions with appropriate pairs of mutant primers (PCR1 : yd-8 and yd-20 and PCR2: yd-19 and lacZ-3′) and Taq DNA polymerase were carried out as recommended by Roche Molecular Biochemicals (IN) in 100 μl reactions, using 1 ng of p62::934 as a template in a PTC-100 thermal cycler for 30 cycles (1 min at 94° C., 1 min at 55° C., 1 min at 72° C.), followed by 7 min at 72° C. The PCR products were purified from a 1.0% agarose gel using a Qiaex DNA extraction kit (Qiagen, Calif.). Then, PCR products 1 and 2 were annealed and amplified as above with primer yd-8 and lacZ-3′. The resulting PCR products were purified as above and digested with restriction enzymes HindIII and SalI. Finally this PCR product was cloned into HindIII and SalI pretreated p62::934 plasmid to generate pAM4. All the constructs were verified by DNA sequencing. The promoter deletion constructs were transformed into wild-type strain RZ53-6 for subsequent β-galactosidase assays.
Yeast cells containing lacZ fusion plasmids were grown at 30° C. on uracil dropout medium containing dextrose (Treco, et al., In Current Protocols in Molecular Biology, Ausubel, et al., eds., pp. 13.2.1-13.2.12, John Wiley & Sons, New York (1997)). For unsaturated fatty acid repression analysis, yeast were grown in medium supplemented with 1% tergitol as described previously (Choi, et al., J. Biol. Chem. 271:3581-3589 (1996)). Cells were grown in the presence of UFAs for 6 hours prior to the β-galactosidase assays. Plasmid amplifications and bacterial transformations were performed using Escherichia coli strain DH5 (Invitrogene Corp.). […]

[2] = test system: OLE1 mRNA; test: Northern blot analysis of OLE1 mRNA; format: cell-based, S. cerevisiae; conditions: for levels of OLE1 mRNA after transition metal in normoxia: increasing concentrations
Procedure: (§2) Yeast cells containing lacZ fusion plasmids were grown at 30° C. on uracil dropout medium containing dextrose (Treco, et al., In Current Protocols in Molecular Biology, Ausubel, et al., eds., pp. 13.2.1-13.2.12, John Wiley & Sons, New York (1997)). For unsaturated fatty acid repression analysis, yeast were grown in medium supplemented with 1% tergitol as described previously (Choi, et al., J. Biol. Chem. 271:3581-3589 (1996)). Cells were grown in the presence of UFAs for 6 hours prior to the β-galactosidase assays. Plasmid amplifications and bacterial transformations were performed using Escherichia coli strain DH5 (Invitrogene Corp.). Yeast transformations were performed by the method of Elble (BioTechniques 13:18-20 (1992)). Preparative cultures were grown aerobically in a shaker at 200 rpm (Innova 4000 incubator shaker, New Brunswick Scientific. NJ) at 30° C. to mid-logarithmic phase. For experiments assessing yeast under hypoxic conditions, mid-logarithmic phase preparative cultures were used to inoculate special air-tight flasks with inlet and outlet ports to allow for equilibration with the appropriate gas mixtures. Cultures were exposed to a continuous flow of hydrated medical grade nitrogen (BOC Gases, MA), unless otherwise specified, for 6 hours after inoculating the medium via the inlet port. Of note, medical grade nitrogen is contaminated with trace amounts of O2 (less than 1%). The percentage of saturated O2 in each flask was confirmed by using an oxygen monitor (G. C. Industries, Inc.) attached to the outlet port of each culture. […] Growth was monitored by measuring the yeast OD600 at the completion of each experiment.
(§3) Total yeast RNA was isolated as described previously (Collart, et al., In Current Protocols in Molecular Biology, Ausubel, et al., pp. 13.12.1-13.12.5, John Wiley & Sons, New York (1997)). Equal amounts (15 μg) of total RNA were analyzed by Northern blots according to standard procedures for separation of RNA using 1% formaldehyde gels (Collart, et al., In Current Protocols in Molecular Biology, Ausubel, et al., eds, pp. 13.12.1-13.12.5, John Wiley & Sons, New York (1997)). […] Northern blots were quantified using a phosphorimager (Molecular Dynamics) and autoradiographs were also prepared on X-OMAT AR film (Kodak, NY).
For the detection of OLE1 mRNA, a radiolabeled DNA probe was made using a 0.5 kb EcoRI fragment from the OLE1 protein coding sequence. […] The purified DNA fragments were labeled to high specific activity with [^32P]dCTP by the random primer extension method using Ready to Go DNA labeling beads (Amersham Pharmaceutical Biotech) reaction kit. […] Specific activity of labeled probes was determined by liquid scintillation counting.

[3] = test system: S. cerevisiae; format: cell-based; conditions: any of the concentrations tested
Procedure: as §2, with “mixtures.” for “mixtures. Cultures were exposed to a continuous flow of hydrated medical grade nitrogen (BOC Gases, MA), unless otherwise specified, for 6 hours after inoculating the medium via the inlet port. Of note, medical grade nitrogen is contaminated with trace amounts of O2 (less than 1%). The percentage of saturated O2 in each flask was confirmed by using an oxygen monitor (G. C. Industries, Inc.) attached to the outlet port of each culture.”

[4] = test system: LORE-basal CYC1 promoter-lacZ; test: microbe, parasite or virus in culture; format: cell-based, S. cerevisiae
Procedure: as §1, with “The promoter deletion constructs were transformed into wild-type strain RZ53-6 for subsequent β-galactosidase assays.” left out

[5] = test system: TRX2 mRNA; test: Northern blot analysis of TRX2 mRNA; format: cell-based, S. cerevisiae
Procedure: (§4) Yeast cells containing lacZ fusion plasmids were grown at 30° C. on uracil dropout medium containing dextrose (Treco, et al., In Current Protocols in Molecular Biology, Ausubel, et al., eds., pp. 13.2.1-13.2.12, John Wiley & Sons, New York (1997)). For unsaturated fatty acid repression analysis, yeast were grown in medium supplemented with 1% tergitol as described previously (Choi, et al., J. Biol. Chem. 271:3581-3589 (1996)). Cells were grown in the presence of UFAs for 6 hours prior to the β-galactosidase assays. Plasmid amplifications and bacterial transformations were performed using Escherichia coli strain DH5 (Invitrogene Corp.). […] Growth was monitored by measuring the yeast OD600 at the completion of each experiment.
as §3, with “NY). […]” for “NY).”

[6] = test system: ATF1; test: Northern blot analysis of ATF1 mRNA; format: cell-based, S. cerevisiae
Procedure: as §4
as §3, with “NY). […]” for “NY).”

[7] = test system: SUT1; test: Northern blot analysis of SUT1 expression; format: cell-based, S. cerevisiae
Procedure: as §4
as §3, with “NY). […]” for “NY).”

[8] = test system: ANB1; test: Expression of anaerobic yeast gene ANB1; format: cell-based, S. cerevisiae
[9] = test system: LORE binding factor(s); test: Electrophoretic mobility shift assay (EMSA) with crude yeast extracts; parameters: species or system S. cerevisiae
Procedure: Haploid yeast (S. cerevisiae, strain RZ53-6 ) were cultured in 1-liter flasks containing 200 ml of YPD (1% yeast extract, 2% peptone, 2% dextrose) either under normoxic or hypoxic conditions, harvested at midlog phase (OD600=0.8), and lysed by vortexing with glass beads according to published protocols (Pfeifer, et al., Cell 49:9-18 (1987)). Following addition of ammonium sulfate to 40% and incubation on a rocker table at 4° C. for 30 minutes, the precipitate was collected by centrifugation at 14,000 rpm in a microfuge at 4° C. for 10 minutes. The pellet was resuspended in storage buffer (20 mM HEPES, pH8.0; 5 mM EDTA; 20% (v/v) glycerol; 1 mM PMSF; 7 mM β-mercaptoethanol) and stored frozen at −80° C. The soluble protein concentration was determined using a Bradford dye binding assay (BioRad, CA).
EMSAs were performed essentially as described by Carey (Carey, Methods Enzymol. 208:103-117 (1991)) utilizing synthetic paired oligonucleotides (e.g., 10-5′ and 10-3′) as a probe or a probe containing the LORE sequence made by PCR using p62::934 as the template with ^32P-labeled oligonucleotides 1-5′ and yd-10 (−397 to −234) as the primers. […] The concentration of each probe was determined on an ethidium bromide stained agarose-mini gel (Maniatis, et al., Molecular Cloning: A Laboratory Manual, Cold Spring Harbor Laboratory Press, Cold Spring Harbor, N.Y. (1982)). […]

Question: With c1cnc2c(c1)ccc1cccnc12 [1,10 Ph, 1,10-phenanthroline] as the molecule, how does the “gene expression after incubation with chelator” value ([1]; 6 hours of incubation, 2-8 μg/ml) read?
Answer: substantially increase

Question: And the “expression of OLE1 by OLE1 promoter-lacZ reporter” value ([1]; exposure for six hours)?
Answer: dose dependent increase

Question: And the “expression of OLE1 by Northern blot” value ([2]; exposure for six hours)?
Answer: dose dependent increase

Question: And the cell growth [3]?
Answer: unaffected

Question: For [Cl][Co][Cl] [CoCl2, cobalt chloride], which “induction of reporter under cobalt-treated conditions in ROX1 deletion strain” value ([1]; reporter p62::934, strain RZ53-6 Δrox1) is on record?
Answer: 5.1 fold increase

Question: And the “CoCl2 dependent induction by reporter assay” value ([1]; reporter pAM4 (mutated LORE))?
Answer: not affected

Question: And the “increase of reporter gene expression under cobalt-treated conditions” value ([4]; plasmid pAM6)?
Answer: ~10 fold

Question: What about the “levels of OLE1 mRNA after transition metal in normoxia” value [2] of the same molecule?
Answer: increased levels

Question: And the “cobalt induction of TRX2 mRNA” value [5]?
Answer: ~2.5 fold

Question: And the “induction of ATF1 by cobalt treatment” value [6]?
Answer: induced

Question: What about the “induction of SUT1 expression by cobalt” value [7] of the same molecule?
Answer: no significant induction

Question: What about the “expression of ANB1 with cobalt” value [8] of the same molecule?
Answer: not upregulated

Question: For [Cl][Ni][Cl] [NiCl2, nickel chloride], which “levels of OLE1 mRNA after transition metal in normoxia” value [2] is on record?
Answer: increased levels

Question: With CCCCC/C=C\C/C=C\CCCCCCCC(=O)O [linoleic acid] as the molecule, how does the IC50 ([4]; Saccharomyces cerevisiae, reporter pAM6 (two copies of LORE in tandem), UFA for 6 hours, read-out: IC50 of inhibition of lacZ reporter plasmid pAM6 expression) read?
Answer: ~20 µM

Question: And the “repression / dose-response inhibition of lacZ reporter pAM6 expression” value ([4]; normoxia-, hypoxia- and cobalt-induced expression, pAM6)?
Answer: strongly repress

Question: What about the “OLE1 mRNA level after unsaturated fatty acid” value ([2]; Northern blot) of the same molecule?
Answer: dramatically repressed

Question: And the “hypoxia-induced LORE complex formation (B1)” value ([9]; crude extracts from L.A.-treated yeast)?
Answer: significantly suppressed

Question: Which “hypoxia- or CoCl2-induced complex formation with end-labeled probe” value ([9]; crude extracts from hypoxia and cobalt treated yeast) does the source give for “#8: paired oligonucleotides -387 to -368 of OLE1 promoter (SEQ ID NO:44/45) (chain 1 AGGTCTCTTCGCATAGTCG; chain 2 CGACTATGCGAAGAGAACCT; chemistry not given here)” here?
Answer: No specific hypoxia- or CoCl2-induced complex formation
